Data from ChEMBL document CHEMBL1201862, “PubChem BioAssay data set” (2004).
Calls of active or inactive are those of the source.

Legend:
[1] = target: T1, Low molecular weight phosphotyrosine protein phosphatase (Homo sapiens, UniProt P24666); type: functional; conditions: read-out: IC50_Mean
T1 sequence (P24666 whole entry): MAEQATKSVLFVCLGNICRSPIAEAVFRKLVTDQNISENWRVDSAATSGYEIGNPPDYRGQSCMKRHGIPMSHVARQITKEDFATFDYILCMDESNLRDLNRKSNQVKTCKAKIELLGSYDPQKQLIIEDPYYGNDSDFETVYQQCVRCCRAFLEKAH

[2] = target: T1, Low molecular weight phosphotyrosine protein phosphatase; type: functional; conditions: read-out: IC50_Mean; remark: listed apart in the source
[3] = target: T2, Tyrosine-protein phosphatase non-receptor type 22 (Homo sapiens, UniProt Q9Y2R2); assay: PTPN22 enzyme inhibitors – biochemical, fluorescence, LYP catalytic domain, selectivity assay for LMPTP inhibitor project, dose response (AID 652006); type: functional; conditions: read-out: IC50_Mean
T2 sequence (Q9Y2R2 whole entry): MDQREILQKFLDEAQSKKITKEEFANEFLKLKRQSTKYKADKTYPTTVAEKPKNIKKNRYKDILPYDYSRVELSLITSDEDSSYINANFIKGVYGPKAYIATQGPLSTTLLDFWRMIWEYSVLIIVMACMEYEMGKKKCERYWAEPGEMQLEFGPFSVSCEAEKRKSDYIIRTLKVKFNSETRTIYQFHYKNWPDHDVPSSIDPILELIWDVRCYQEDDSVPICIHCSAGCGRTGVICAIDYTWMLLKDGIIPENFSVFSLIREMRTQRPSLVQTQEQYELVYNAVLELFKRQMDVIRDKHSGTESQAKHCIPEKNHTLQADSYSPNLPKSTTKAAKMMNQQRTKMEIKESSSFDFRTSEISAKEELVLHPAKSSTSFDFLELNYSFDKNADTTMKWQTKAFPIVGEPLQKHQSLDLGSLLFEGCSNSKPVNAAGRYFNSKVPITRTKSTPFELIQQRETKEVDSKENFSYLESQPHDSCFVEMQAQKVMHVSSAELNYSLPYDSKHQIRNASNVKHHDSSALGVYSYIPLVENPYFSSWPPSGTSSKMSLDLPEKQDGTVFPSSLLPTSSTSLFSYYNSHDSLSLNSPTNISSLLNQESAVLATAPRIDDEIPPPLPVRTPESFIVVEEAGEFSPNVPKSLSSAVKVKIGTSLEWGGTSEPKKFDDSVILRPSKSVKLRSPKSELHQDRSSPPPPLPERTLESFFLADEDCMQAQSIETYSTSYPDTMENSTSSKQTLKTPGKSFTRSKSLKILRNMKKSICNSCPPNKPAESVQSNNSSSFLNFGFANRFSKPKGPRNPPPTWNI

[4] = NIH-3T3 fibroblast cytotoxicity, dose response, cytotoxicity control, cell-based, fluorescence, Alamar Blue, secondary assay (AID 2327); type: functional;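 also: NIH-3T3 mouse fibroblasts cultured with fluconazole at 8 µg/mL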
[5] = fluconazole-exposed Candida albicans growth modulators – fluorescence, retest, confirmation (AID 2467); type: functional, cell-based
[6] = Trypanosoma cruzi growth suppression in host cells – NIH3T3 host cells, beta-gal luminescence, confirmation (AID 2044); type: functional, cell-based;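 also: intracellular parasites grown in NIH/3T3 mouse fibroblasts as host cells; luminescent beta-galactosidase reporter signal from transgenic T. cruzi replicating inside host cells; inhibitors lower the luminescence signal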
[7] = viability of PTEN-deleted HCT116 cells – cell-based, HCT116 PTEN knockout, dose response (AID 1047); type: functional;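 also: HCT116 colon tumor cells with PTEN knocked out; cells exposed to compound for 60 hours before readout; potency for loss of cell viability measured by luminescence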
[8] = NIH3T3 cell viability loss – ATP luminescence, mouse fibroblasts, counter-screen, dose response (AID 2010); type: functional, cell-based;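 also: cells exposed to compound for about 90 hours before reading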
[9] = viability of HCT116 lacking mutant beta-catenin – cell-based, human colon tumor, dose response (AID 1045); type: functional;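 also: HCT116 colon tumor cells with beta catenin knocked out; cells exposed to compound for 60 hours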
[10] = activation of miR-122 Renilla sensor silencing – cell-based, Huh7 psiCHECK-miR122, Renilla luciferase, cherry-picked, dose response (AID 651956); type: functional;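 also: huh7 hepatoma cells stably carrying a psiCHECK-2 miR-122 sensor plasmid; renilla luciferase signal reporting endogenous miR-122 activity after 48 h compound exposure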
[11] = general mammalian cell viability loss – activator set, cherry-pick, cytotoxicity control for miR-122 modulator project, dose response (AID 720690); type: functional, cell-based;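 also: HEK293T human cells scored for general mammalian cytotoxicity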
[12] = target: ADP-ribosylation factor GTPase-activating protein 1 (Rattus norvegicus, UniProt Q62848); assay: Fluorescence polarization-based biochemical high throughput dose response screening assay to identify inhibitors of ADP-ribosylation factor GTPase activating protein 1 (ARFGAP1).; type: functional
Chain of ADP-ribosylation factor GTPase-activating protein 1 (Q62848 whole entry): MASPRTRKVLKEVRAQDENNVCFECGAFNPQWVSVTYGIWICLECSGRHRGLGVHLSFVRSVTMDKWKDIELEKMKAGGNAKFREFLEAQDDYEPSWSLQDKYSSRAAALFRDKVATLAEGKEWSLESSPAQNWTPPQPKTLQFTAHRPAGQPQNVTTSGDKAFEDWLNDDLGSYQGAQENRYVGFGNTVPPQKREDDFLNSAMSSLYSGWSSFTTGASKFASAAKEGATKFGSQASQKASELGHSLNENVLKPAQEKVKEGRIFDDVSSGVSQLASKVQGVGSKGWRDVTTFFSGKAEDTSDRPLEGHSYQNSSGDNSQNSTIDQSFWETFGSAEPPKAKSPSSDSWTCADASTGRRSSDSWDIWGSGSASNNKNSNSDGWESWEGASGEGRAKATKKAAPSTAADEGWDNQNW

[13] = microbe, parasite or virus in culture; type: functional; conditions: Mycobacterium tuberculosis
Saccharomyces cerevisiae = assay: S. cerevisiae Caspase-1/ASC signal blockers IC50, NALP1 inhibitor project selectivity test (AID 488863); type: functional, organism-based
[14] = Luminescence Cell-Based Dose Retest to Confirm Inhibitors of Cancer Stem Cells. [Related pubchem assays (depositor defined):AID2717, AID2721]; type: functional; conditions: Homo sapiens
[15] = target: T3, NACHT, LRR and PYD domains-containing protein 1 (Homo sapiens, UniProt Q9C000); assay: NALP1 inhibitors in yeast, dose response, luminescent (AID 488860); type: functional
T3 sequence (Q9C000 whole entry): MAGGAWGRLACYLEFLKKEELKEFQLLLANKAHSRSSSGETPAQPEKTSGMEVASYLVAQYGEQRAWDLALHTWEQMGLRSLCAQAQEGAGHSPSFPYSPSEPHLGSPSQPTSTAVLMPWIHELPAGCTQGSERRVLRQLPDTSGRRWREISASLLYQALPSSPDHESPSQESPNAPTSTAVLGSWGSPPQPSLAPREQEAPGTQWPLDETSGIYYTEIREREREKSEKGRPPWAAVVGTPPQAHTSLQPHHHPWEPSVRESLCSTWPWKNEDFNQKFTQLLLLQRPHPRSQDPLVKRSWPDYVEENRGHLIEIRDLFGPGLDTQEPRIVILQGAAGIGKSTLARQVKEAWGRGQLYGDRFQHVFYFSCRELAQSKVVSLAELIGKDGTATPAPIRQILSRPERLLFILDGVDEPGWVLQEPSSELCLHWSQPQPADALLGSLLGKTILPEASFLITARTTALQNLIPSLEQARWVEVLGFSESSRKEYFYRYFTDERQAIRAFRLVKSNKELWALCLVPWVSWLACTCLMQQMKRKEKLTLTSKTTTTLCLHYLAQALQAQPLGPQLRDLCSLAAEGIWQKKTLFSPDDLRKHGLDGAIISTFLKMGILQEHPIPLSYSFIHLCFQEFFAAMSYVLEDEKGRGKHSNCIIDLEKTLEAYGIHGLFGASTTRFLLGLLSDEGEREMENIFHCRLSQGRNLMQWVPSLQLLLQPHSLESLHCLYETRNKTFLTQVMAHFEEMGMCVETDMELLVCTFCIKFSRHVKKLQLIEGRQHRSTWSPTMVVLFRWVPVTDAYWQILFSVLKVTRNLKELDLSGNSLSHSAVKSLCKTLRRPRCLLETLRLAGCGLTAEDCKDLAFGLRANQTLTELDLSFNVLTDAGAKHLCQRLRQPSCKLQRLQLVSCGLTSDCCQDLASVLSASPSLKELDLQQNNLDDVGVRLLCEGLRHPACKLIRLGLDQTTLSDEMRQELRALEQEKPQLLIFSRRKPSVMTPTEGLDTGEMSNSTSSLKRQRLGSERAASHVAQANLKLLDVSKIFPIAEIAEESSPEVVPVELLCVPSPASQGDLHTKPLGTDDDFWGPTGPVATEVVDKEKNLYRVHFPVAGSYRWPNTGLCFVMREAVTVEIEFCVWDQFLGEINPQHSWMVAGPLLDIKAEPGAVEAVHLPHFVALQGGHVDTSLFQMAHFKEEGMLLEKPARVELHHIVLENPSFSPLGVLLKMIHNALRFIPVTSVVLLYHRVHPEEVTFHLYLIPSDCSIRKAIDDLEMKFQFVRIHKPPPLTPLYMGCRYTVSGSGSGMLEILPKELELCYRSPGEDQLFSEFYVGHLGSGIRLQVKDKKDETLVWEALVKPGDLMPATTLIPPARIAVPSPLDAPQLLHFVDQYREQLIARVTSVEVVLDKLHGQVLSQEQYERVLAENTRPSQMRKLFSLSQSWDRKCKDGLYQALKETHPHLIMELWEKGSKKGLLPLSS

[16] = cytotoxicity toward MDA-MB-231 breast cancer cells – cell-based, CellTiter-Glo luminescence, cherry-pick, cytotoxicity control for RAD54 inhibitor project, dose response (AID 651692); type: functional
[17] = target: T4, DNA repair and recombination protein RAD54-like (Homo sapiens, UniProt Q92698); assay: RAD54 Holliday junction migration blockers – biochemical, fluorescence, cherry-picked samples, dose series, confirmation (AID 651657); type: functional
T4 sequence (Q92698 whole entry): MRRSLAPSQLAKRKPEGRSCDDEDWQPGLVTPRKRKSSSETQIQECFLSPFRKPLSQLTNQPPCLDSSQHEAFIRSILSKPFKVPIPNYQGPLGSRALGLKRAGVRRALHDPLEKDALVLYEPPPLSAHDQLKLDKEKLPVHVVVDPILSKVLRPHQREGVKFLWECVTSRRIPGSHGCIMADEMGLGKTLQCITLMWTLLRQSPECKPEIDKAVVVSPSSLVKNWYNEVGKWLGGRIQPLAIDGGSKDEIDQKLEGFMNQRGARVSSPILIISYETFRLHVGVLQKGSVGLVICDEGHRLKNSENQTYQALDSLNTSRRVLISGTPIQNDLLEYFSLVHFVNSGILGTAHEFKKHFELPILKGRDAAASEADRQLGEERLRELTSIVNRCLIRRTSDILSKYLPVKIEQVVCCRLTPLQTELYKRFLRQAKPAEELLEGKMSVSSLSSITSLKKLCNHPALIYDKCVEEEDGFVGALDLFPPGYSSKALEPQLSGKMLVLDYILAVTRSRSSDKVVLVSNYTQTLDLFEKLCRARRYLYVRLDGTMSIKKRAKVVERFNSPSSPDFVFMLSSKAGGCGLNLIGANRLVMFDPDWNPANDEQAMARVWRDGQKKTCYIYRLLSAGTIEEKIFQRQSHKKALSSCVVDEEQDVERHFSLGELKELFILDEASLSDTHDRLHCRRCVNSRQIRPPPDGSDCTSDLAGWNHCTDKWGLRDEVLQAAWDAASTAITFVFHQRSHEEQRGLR

[18] = target: T5, DNA repair protein RAD52 homolog (Homo sapiens, UniProt P43351); type: functional, biochemical
T5 sequence (P43351 whole entry): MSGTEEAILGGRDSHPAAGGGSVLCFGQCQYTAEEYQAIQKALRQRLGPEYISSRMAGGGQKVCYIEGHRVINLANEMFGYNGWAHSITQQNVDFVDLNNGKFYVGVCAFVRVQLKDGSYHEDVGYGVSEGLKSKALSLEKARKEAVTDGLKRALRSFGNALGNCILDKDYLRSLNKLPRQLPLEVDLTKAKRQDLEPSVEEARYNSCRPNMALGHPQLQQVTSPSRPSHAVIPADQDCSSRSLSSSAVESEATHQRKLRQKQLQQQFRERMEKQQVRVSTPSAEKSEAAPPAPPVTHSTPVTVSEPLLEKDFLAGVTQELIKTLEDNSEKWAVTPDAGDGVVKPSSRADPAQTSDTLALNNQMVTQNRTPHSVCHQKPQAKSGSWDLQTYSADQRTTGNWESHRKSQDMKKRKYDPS

[19] = target: T6, Corticotropin-releasing factor receptor 2/Corticotropin-releasing factor-binding protein (Homo sapiens, UniProt P24387+Q13324); assay: Dose Response confirmation of uHTS hits for small molecule antagonists of the CRF-binding protein and CRF-R2 receptor complex.; type: functional; conditions: read-out: IC50_Mean
T6 sequence (Q13324 whole entry): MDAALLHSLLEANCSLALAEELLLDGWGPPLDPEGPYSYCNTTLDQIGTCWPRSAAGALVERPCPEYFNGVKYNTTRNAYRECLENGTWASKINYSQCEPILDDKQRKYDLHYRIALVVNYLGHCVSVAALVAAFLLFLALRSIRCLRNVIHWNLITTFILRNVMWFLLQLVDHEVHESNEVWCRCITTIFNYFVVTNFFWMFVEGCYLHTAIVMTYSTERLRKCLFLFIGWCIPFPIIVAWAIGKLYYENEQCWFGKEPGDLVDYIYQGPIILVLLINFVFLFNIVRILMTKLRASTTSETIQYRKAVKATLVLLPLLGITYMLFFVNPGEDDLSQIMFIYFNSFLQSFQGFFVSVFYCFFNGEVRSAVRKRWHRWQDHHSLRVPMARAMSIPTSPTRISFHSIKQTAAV
T6 sequence (P24387 whole entry): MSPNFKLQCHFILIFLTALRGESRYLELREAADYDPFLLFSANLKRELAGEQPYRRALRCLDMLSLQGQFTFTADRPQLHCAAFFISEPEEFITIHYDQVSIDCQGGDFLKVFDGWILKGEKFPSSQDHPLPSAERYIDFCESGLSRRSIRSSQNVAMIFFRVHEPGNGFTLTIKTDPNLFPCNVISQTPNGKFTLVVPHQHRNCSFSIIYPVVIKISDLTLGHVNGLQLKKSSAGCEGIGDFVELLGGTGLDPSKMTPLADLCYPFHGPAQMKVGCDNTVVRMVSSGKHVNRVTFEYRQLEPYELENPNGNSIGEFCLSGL

[20] = target: T6, Corticotropin-releasing factor receptor 2/Corticotropin-releasing factor-binding protein; assay: activators of CRF receptor 2 with binding protein – uHTS hits, confirmation (AID 602473); type: functional; conditions: read-out: EC50_Mean
[21] = blockers of CRF-binding protein–CRF-R2 complex – cell-based, uHTS hits, 384-well, dose response (AID 651639); type: functional, Homo sapiens; conditions: read-out: IC50_Mean

O=C(N/N=C\C=C\c1ccc(Br)cc1)c1ccc2c(c1)OCO2
IC50 [1]: 7.43 µM (active)
IC50 [2]: 11.6 µM (active)
IC50 [3]: 23.5 µM (inactive)

N=c1c2c(-c3ccccc3)c(-c3ccccc3)n(Cc3ccccc3)c2ncn1CCO
EC50 [4]: > 150 µM (inactive)
EC50 [5]: > 38 µM (not active)
EC50 [6]: 2.42 µM (active)
EC50 [7]: 0.555 µM (active)
EC50 [8]: > 30 µM (not active)
EC50 [9]: 0.637 µM (active)
AC50 [10]: 30.5 µM (active)
AC50 [11]: 23.4 µM (active)

O=C(Nc1ccc(-c2nc3ccccc3[nH]2)cc1)c1ccc2c(c1)OCO2
IC50 [12]: 42 µM (inactive)

OC(CN1CCCCC1)Cn1c2ccc(Cl)cc2c2cc(Cl)ccc21 (centres undefined)
EC50 [6]: 2.43 µM (active)
CC50 [13]: 14.5 µM (active)
EC50 [8]: 10.8 µM (active)
IC50 (Saccharomyces cerevisiae): 7.1 µM (active)
AC50 [14]: 5.53 µM (active)
IC50 [15]: 10.2 µM (active)
AC50 [16]: 32.1 µM (active)
AC50 [17]: 27.2 µM (active)
AC50 [18]: 12.1 µM (active)

CCN(Cc1ccccc1)C(c1cccc(C#N)c1)c1nnnn1C(C)(C)C (centres undefined)
IC50 [19]: 1 µM (active)
EC50 [20]: > 53 µM (inactive)
IC50 [21]: 7.23 µM (active)
